In brackets after ≈: the same amount, converted by molar mass. Entries after “also recorded” stand apart in the source; their conditions may differ. One block for each compound: values may come before it.
Experiments:
[1] = tested on: advanced hematologic malignancies with an IDH2 mutation; assay: Phase 1/2 study AG221-C-001: clinical activity and safety; assay type: in vivo, human
Excerpt: (§1) This is a Phase 1/2, multicenter, open-label, 3-part (Phase 1 dose escalation, Phase 1 Part 1 Expansion, and Phase 2), safety, PK/PD, and clinical activity evaluation of orally administered COMPOUND 1 in subjects with advanced hematologic malignancies that harbor an IDH2 mutation. The study includes a dose escalation phase to determine MTD/MAD and/or RP2D, an expansion phase (Part 1) to further evaluate the safety, tolerability, and clinical activity of COMPOUND 1, and a Phase 2 to assess the clinical efficacy of COMPOUND 1 at the RP2D and to further evaluate safety in subjects with refractory and relapsed AML carrying an IDH2 mutation.
Subjects in the dose escalation phase and Part 1 Expansion will have the extent of their disease assessed, including bone marrow biopsies and/or aspirates and peripheral blood, at screening, on C1D15, C2D1, and C3D1, every 28 days (peripheral blood only) or every 56 days (bone marrow biopsies and/or aspirates and peripheral blood) thereafter while on study drug treatment, independent of dose delays and/or dose interruptions, and/or at any time when progression of disease is suspected. Response to treatment and treatment decisions in all subjects will be determined by the Investigators based on modified International Working Group (IWG) response criteria or other appropriate response criteria for the malignancy under study. […]

2-HG = assay: Phase 1/2 study AG221-C-001: pharmacodynamic response (2-HG plasma levels); assay type: in vivo, human
Excerpt: as §1
Subjects in the dose escalation phase and Part 1 Expansion also will undergo PK/PD assessments over a 10-hour period on C1D15, C2D1, and C4D1. […] These subjects will have urine collected for PK/PD evaluation at screening; prior to dosing on C1D15, C2D1 and Day 1 of all cycles thereafter; and at the End of Treatment visit. Available bone marrow biopsy samples also will be assessed for 2-HG and α-KG levels.
The starting dose of COMPOUND 1 recommended for evaluation is 100 mg QD. This is based on the safety, PK, pharmacodynamics and clinical activity of COMPOUND 1 observed to date in AG221-C-001. […] Thus a dose of 100 mg should adequately achieve inhibition of 2-HG in subjects with either R140Q or R172K mutation.
Serial blood sampling for determination of concentration-time profiles of COMPOUND 1 and its metabolite (6-(6-(trifluoromethyl)pyridin-2-yl)-N2-(2-(trifluoromethyl)pyridin-4-yl)-1,3,5-triazine-2,4-diamine). Urine sampling for determination of concentrations of COMPOUND 1 and its metabolite (6-(6-(trifluoromethyl)pyridin-2-yl)-N2-(2-(trifluoromethyl)pyridin-4-yl)-1,3,5-triazine-2,4-diamine) (dose escalation and Part 1 expansion subjects only). Blood and bone marrow sampling for determination of 2-HG and α-KG levels.

[2] = tested on: advanced hematologic malignancies with an IDH2 mutation; assay: NRAS mutation status and COMPOUND 1 response (next generation sequencing of screening samples, Fisher's exact test); assay type: in vivo, human
Description: A subset of the clinical samples from the trial described in Example 1 were analyzed at screening. Sample types included bone marrow, peripheral blood and mononuclear cells isolated from bone marrow or peripheral blood. DNAs were extracted from these samples and sequenced at Foundation Medicine (see http://foundationone.com/learn.php) using next generation sequencing technique.
A total of 60 genes were identified to carry at least one mutation in the analyzed set (including IDH2 gene). Fisher's exact test was conducted to evaluate the association of somatic mutations with clinical response (responders include CR, CRp, CRi and PR, indicated as +, while none-responders include SD and PD, indicated as—in Table 11). The P-values were adjusted by multiple-test correction.
Mutation status positive (+) means any known mutation(s) in NRAS, and negative (−) means no mutation in NRAS was present.
Positive response status (+) includes CR, mCR and PR and negative response status (−) includes stable disease (SD) and progressive disease (PD).

[3] = tested on: advanced hematologic malignancies with an IDH1 mutation; assay: NRAS mutation status and COMPOUND 2 response (subset of clinical samples of the Phase 1 trial); assay type: in vivo, human; conditions: cancer with mutant allele of IDH1
Excerpt: This study is a Phase 1, multicenter, open-label, dose-escalation, safety, PK/PD, and clinical activity evaluation of orally administered COMPOUND 2 in subjects with advanced hematologic malignancies that harbor an IDH1 mutation. The study includes a dose escalation phase to determine MTD and/or RP2D followed by expansion arms to further evaluate the safety, tolerability, and clinical activity of COMPOUND 2 in select populations.
A analysis of a subset of the clinical samples from the trial for COMPOUND 2 was conducted. FIG. 14 provides a visual of NRAS mutations according to response categories for COMPOUND 2. FIG. 14 profiles bone marrow at screening visit for patients only where genes were mutated in ≥2. In FIG. 14, genes (y-axis) are shown in decreasing order of frequency, with the exception of IDH2, while patients (x-axis) are grouped by response then by similarity in alterations; only patients from dose escalation phase with an evaluable response included.
A subset of the clinical samples from the trial for COMPOUND 2 described in Example 3 was analyzed for mutations in the samples. FIG. 14 provides a visual of commutations, including NRAS mutations according to response categories for COMPOUND 2. FIG. 14 profiles bone marrow at screening visit for patients only where genes were mutated in ≥2. […]

[4] = solubility in fasted state simulated intestinal fluid (FASSIF); assay type: physicochemical; conditions: pH 6.1, fassif, thermodynamic from solid, pH of 6.1 at 4 hours
Description: In comparison, amorphous spray-dried dispersions have a solubility of about 0.05 mg/mL to about 0.50 mg/mL in FASSIF at 3 hours.

SMILES: CC(C)(O)CNc1nc(Nc2ccnc(C(F)(F)F)c2)nc(-c2cccc(C(F)(F)F)n2)n1 [COMPOUND 1, 2-methyl-1-[(4-[6-(trifluoromethyl)pyridin-2-yl]-6-{[2-(trifluoromethyl)pyridin-4-yl]amino}-1,3,5-triazin-2-yl)amino]propan-2-ol]
safety profile, including ≥Grade 3 ([1]; 100 mg): consistent with that of lower doses | overall response rate ([1]; 44 subjects treated at 100 mg QD, preliminary efficacy data): 36.4% | reduction in 2-HG plasma levels (2-HG; by Day 1 of Cycle 2): sustained reduction | inhibition of 2-HG (2-HG; most subjects with R140Q mutation, all doses, plasma): up to 98% | dose dependence of exposure and inhibition of 2-HG (2-HG; subjects with R172K mutation): Increasing dose is associated with higher exposure and inhibition of 2-HG | association of NRAS mutation status with response ([2]; cancer with mutant allele of IDH2): associated with responses; also recorded: significantly associated | number of patients, response status − , NRAS mutation + ([2]; non-responders (SD, PD), any known NRAS mutation): 21 | number of patients, response status − , NRAS mutation − ([2]; non-responders (SD, PD), no NRAS mutation): 40 | number of patients, response status + , NRAS mutation + ([2]; responders, any known NRAS mutation, N = 118 analyzed): 2 | number of patients, response status + , NRAS mutation − ([2]; responders, no NRAS mutation, N = 118 analyzed): 55

SMILES: N#Cc1ccnc(N2C(=O)CC[C@H]2C(=O)N(c2cncc(F)c2)[C@H](C(=O)NC2CC(F)(F)C2)c2ccccc2Cl)c1 [COMPOUND 2, (S)—N—((S)-1-(2-chlorophenyl)-2-((3,3-difluorocyclobutyl)amino)-2-oxoethyl)-1-(4-cyanopyridin-2-yl)-N-(5-fluoropyridin-3-yl)-5-oxopyrrolidine-2-carboxamide]
association of NRAS mutation status with response [3]: associated with responses

solubility at 4 h [4]: ~18 µg/mL (≈ 30.9 µM)
SMILES: N#Cc1ccnc(N2C(=O)CC[C@H]2C(=O)N(c2cncc(F)c2)[C@H](C(=O)NC2CC(F)(F)C2)c2ccccc2Cl)c1 [Form 2]
